Reference: patent publication US9695155B2, “Herbicidal substituted pyrimidinyloxy benzene compounds” (E. I. DU PONT DE NEMOURS AND COMPANY, priority 2013, dated 2017)

How the values were obtained:
Brazilian crabgrass = assay: Test E preemergence; assay type: in vivo, Digitaria horizontalis; conditions: for Crabgrass, Brazil plant response rating: scale 0 to 100 (0 no effect, 100 complete control); for Plant response rating, Crabgrass, Brazil: scale 0 to 100, 0 no effect, 100 complete control
Summary of the method: (§1)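 Response was scored visually on a 0-100 scale (100 = complete control) versus controls after 14 to 21 days in the greenhouse. Test chemicals, formulated with surfactant in a non-phytotoxic solvent mixture, had been applied preemergence to seeds in silt loam soil or postemergence to 1- to 4-leaf plants in potting medium.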

kochia = assay: Test A postemergence; assay type: in vivo, Kochia scoparia; conditions: 0 to 100 scale where 0 is no effect and 100 is complete control
Summary of the method: (§2)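 Compounds in non-phytotoxic solvent with surfactant applied as soil spray preemergence, or postemergence to plants 2-10 cm at one- to two-leaf stage, in loam/sand. After approximately 10 days in greenhouse, injury rated visually versus untreated controls, 0 (no effect) to 100 (complete control).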

ragweed = assay: Test A preemergence; assay type: in vivo, Ambrosia elatior
Summary of the method: as §2

rice = assay: Test C flooded paddy test; assay type: in vivo, Oryza sativa; conditions: Flood, scale 0 to 100 (0 no effect, 100 complete control), 13 to 15 days
Summary of the method: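 Compound was added to standing water 3 cm above soil, flood maintained, and plants held in a greenhouse before visual scoring against controls at 13 to 15 days.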

morningglory = assay: Test E preemergence; assay type: in vivo, Ipomoea coccinea; conditions: for Morningglory plant response rating: scale 0 to 100 (0 no effect, 100 complete control); for Plant response rating, Morningglory: scale 0 to 100, 0 no effect, 100 complete control
Summary of the method: as §1

arrowleaf sida = assay: Test E preemergence; assay type: in vivo, Sida rhombifolia; conditions: for Plant response rating, Arrowleaf Sida: scale 0 to 100, 0 no effect, 100 complete control
Summary of the method: as §1

Italian ryegrass [1] = assay: Test A postemergence; assay type: in vivo, Lolium multiflorum; conditions: 0 to 100 scale where 0 is no effect and 100 is complete control
Summary of the method: as §2

yellow nutsedge = assay: Test E preemergence; assay type: in vivo, Cyperus esculentus; conditions: for Nutsedge, Yellow plant response rating: scale 0 to 100 (0 no effect, 100 complete control); for Plant response rating, Nutsedge, Yellow: scale 0 to 100, 0 no effect, 100 complete control
Summary of the method: as §1

Italian ryegrass [2] = assay: Test A preemergence; assay type: in vivo, Lolium multiflorum
Summary of the method: as §2

galium = assay: Test A postemergence; assay type: in vivo, Galium aparine; conditions: 0 to 100 scale where 0 is no effect and 100 is complete control
Summary of the method: as §2

giant foxtail = assay: Test E preemergence; assay type: in vivo, Setaria faberii; conditions: for Foxtail, Giant plant response rating: scale 0 to 100 (0 no effect, 100 complete control); for Plant response rating, Foxtail, Giant: scale 0 to 100, 0 no effect, 100 complete control
Summary of the method: as §1

nightshade = assay: Test E preemergence; assay type: in vivo, Solanum ptycanthum; conditions: for Plant response rating, Nightshade: scale 0 to 100, 0 no effect, 100 complete control
Summary of the method: as §1

sandbur = assay: Test E preemergence; assay type: in vivo, Cenchrus echinatus; conditions: for Sandbur plant response rating: scale 0 to 100 (0 no effect, 100 complete control); for Plant response rating, Sandbur: scale 0 to 100, 0 no effect, 100 complete control
Summary of the method: as §1

field bindweed = assay: Test E preemergence; assay type: in vivo, Convolvulus arvensis; conditions: for Field Bindweed plant response rating: scale 0 to 100 (0 no effect, 100 complete control); for Plant response rating, Field Bindweed: scale 0 to 100, 0 no effect, 100 complete control
Summary of the method: as §1

velvetleaf = assay: Test E preemergence; assay type: in vivo, Abutilon theophrasti; conditions: for Velvetleaf plant response rating: scale 0 to 100 (0 no effect, 100 complete control); for Plant response rating, Velvetleaf: scale 0 to 100, 0 no effect, 100 complete control
Summary of the method: as §1

[3] = 125 g ai/ha, 0 to 100 scale where 0 is no effect and 100 is complete control
[4] = 500 g ai/ha, 0 to 100 scale, 0 no effect, 100 complete control, approx. 10 days

In the case of `CCOc1cnn(-c2c(C#N)cccc2Oc2ncc(F)cn2)c1` [Compound 89], the “Crabgrass, Brazil plant response rating” value (Brazilian crabgrass; 31 g ai/ha) was 20, the “Crabgrass, Brazil plant response rating” value (Brazilian crabgrass; 62 g ai/ha) was 90 and the “Plant response rating, Crabgrass, Brazil” value (Brazilian crabgrass; 125 g ai/ha) was 100. For the same molecule, the “Plant response rating, Crabgrass, Brazil” value (Brazilian crabgrass; 250 g ai/ha) was 100, the “Plant response rating, Kochia” value (kochia; 125 g ai/ha) was 80 and the “Plant response rating, Kochia” value (kochia; 500 g ai/ha) was 90. For the same molecule, the “Plant response rating, Ragweed” value (ragweed; [3]) was 50, the “Ragweed plant response rating” value (ragweed; [4]) was 70 and the “Plant response rating, Rice” value (rice; 62 g ai/ha) was 0. For the same molecule, the “Plant response rating, Rice” value (rice; 125 g ai/ha) was 0, the “Plant response rating, Rice” value (rice; 250 g ai/ha) was 0 and the “Morningglory plant response rating” value (morningglory; 31 g ai/ha) was 30. For the same molecule, the “Morningglory plant response rating” value (morningglory; 62 g ai/ha) was 65, the “Plant response rating, Morningglory” value (morningglory; 125 g ai/ha) was 75 and the “Plant response rating, Morningglory” value (morningglory; 250 g ai/ha) was 100. The “Arrowleaf Sida plant response rating” value (arrowleaf sida; 31 g ai/ha, preemergence, scale 0 to 100 (0 no effect, 100 complete control)) was 50, the “Plant response rating, Arrowleaf Sida” value (arrowleaf sida; Preemergence, 62 g ai/ha) was 75 and the “Plant response rating, Arrowleaf Sida” value (arrowleaf sida; preemergence, 125 g ai/ha) was 100. For the same molecule, the “Plant response rating, Arrowleaf Sida” value (arrowleaf sida; preemergence, 250 g ai/ha) was 100, the “Plant response rating, Ryegrass, Italian” value (Italian ryegrass [1]; 125 g ai/ha) was 0 and the “Plant response rating, Ryegrass, Italian” value (Italian ryegrass [1]; 500 g ai/ha) was 90. The “Nutsedge, Yellow plant response rating” value (yellow nutsedge; 31 g ai/ha) was 0, the “Nutsedge, Yellow plant response rating” value (yellow nutsedge; 62 g ai/ha) was 0 and the “Plant response rating, Nutsedge, Yellow” value (yellow nutsedge; 125 g ai/ha) was 20. For the same molecule, the “Plant response rating, Nutsedge, Yellow” value (yellow nutsedge; 250 g ai/ha) was 35, the “Plant response rating, Ryegrass, Italian” value (Italian ryegrass [2]; [3]) was 0 and the “Ryegrass, Italian plant response rating” value (Italian ryegrass [2]; [4]) was 10. The “Plant response rating, Galium” value (galium; 125 g ai/ha) was 90, the “Plant response rating, Galium” value (galium; 500 g ai/ha) was 90 and the “Foxtail, Giant plant response rating” value (giant foxtail; 31 g ai/ha) was 0. The “Foxtail, Giant plant response rating” value (giant foxtail; 62 g ai/ha) was 20, the “Plant response rating, Foxtail, Giant” value (giant foxtail; 125 g ai/ha) was 65 and the “Plant response rating, Foxtail, Giant” value (giant foxtail; 250 g ai/ha) was 100. For the same molecule, the “Nightshade plant response rating” value (nightshade; 62 g ai/ha, scale 0 to 100 (0 no effect, 100 complete control)) was 80, the “Plant response rating, Nightshade” value (nightshade; 125 g ai/ha) was 100 and the “Plant response rating, Nightshade” value (nightshade; 250 g ai/ha) was 100. The “Sandbur plant response rating” value (sandbur; 31 g ai/ha) was 0, the “Sandbur plant response rating” value (sandbur; 62 g ai/ha) was 10 and the “Plant response rating, Sandbur” value (sandbur; 125 g ai/ha) was 10. The “Plant response rating, Sandbur” value (sandbur; 250 g ai/ha) was 20, the “Field Bindweed plant response rating” value (field bindweed; 31 g ai/ha) was 35 and the “Field Bindweed plant response rating” value (field bindweed; 62 g ai/ha) was 75. For the same molecule, the “Plant response rating, Field Bindweed” value (field bindweed; 125 g ai/ha) was 95, the “Plant response rating, Field Bindweed” value (field bindweed; 250 g ai/ha) was 90 and the “Velvetleaf plant response rating” value (velvetleaf; 31 g ai/ha) was 20. For the same molecule, the “Velvetleaf plant response rating” value (velvetleaf; 62 g ai/ha) was 65, the “Plant response rating, Velvetleaf” value (velvetleaf; 125 g ai/ha) was 90 and the “Plant response rating, Velvetleaf” value (velvetleaf; 250 g ai/ha) was 100.
